According to patent publication US20110076293A1, “TRIPTOLIDE DERIVATIVES FOR MODULATION OF APOPTOSIS AND IMMUNOSUPPRESSION” (priority 2002, published 2011):

Experiments:
[1] = test system: IL-2 production in Jurkat human T lymphocyte cells; test: IL-2 production assay for activity of compounds incubated with human serum; details: for bioactivity in IL-2 inhibition assays (in words): FIGS. 4-5
Protocol: Several compounds of formula I were analyzed for their capacity to inhibit IL-2 production in Jurkat human T lymphocyte cells, after incubation with pooled human serum for 48 hours at 37° C. (see Example 20). An ester prodrug, triptolide-14-succinate, designated PG490-88, was included for comparison.
The IC50 values (column 1) are calculated directly from the data in each experiment. The % conversion values (column 2) are calculated as the percent of the IC50 value produced by triptolide, designated PG490, incubated in the same plasma (i.e. in the same experiment).
A. IL-2 production assay for activity of compounds incubated with human serum. Test samples were diluted to 1 mM in complete tissue culture medium. […] Cells from an exponentially expanding culture of the Jurkat human T lymphocyte cell line (#TIB-152 obtained from American Type Culture Collection, Manassas, Va.) were harvested, washed once by centrifugation and dilution in complete tissue culture medium, and diluted to a concentration of 2×10^6 cells/ml. A volume of 50 μl of Jurkat cells (1×10^5 cells) was added to wells containing 100 μl of the diluted compounds, 50 μl of PMA (10 ng/ml) was added to each well, and the plates were incubated at 37° C. in a 5% CO2 incubator. After 24 hours, the plates were centrifuged to pellet the cells, 150 μl of supernatant was removed from each well, and the samples were stored at −20° C. The stored supernatants were analyzed for human IL-2 concentration using the Luminex 100 (Luminex Corporation, Austin, Tex.), Luminex microspheres coupled with anti-IL-2 capture antibody, and fluorochrome-coupled anti-IL-2 detection antibody. The data were expressed as ng/ml of IL-2.
(§1) B. Comparison of bioactivities after incubation of compounds in human serum. The data were plotted as the concentration of compound incubated in serum versus IL-2 concentration. The concentration of compound inducing a 50% decrease in the IL-2 concentration (IC50) was calculated from these dose response curves. […] This percentage conversion was used to compare the bioactivity of various compounds after incubation in human serum.

[2] = test system: Jurkat human T lymphocyte cell line; test: Apoptosis assay (Annexin V) of compounds incubated with human serum
Protocol: Compounds of formula I, as shown in Table 1 above and in the Examples, were assayed for their capacity to induce apoptosis in cells from the Jurkat human T lymphocyte cell line, after incubation with pooled human serum for varying periods of time at 37° C. (see Example 19). An ester prodrug, triptolide-14-succinate, designated PG490-88, was included for comparison. The extent of conversion to triptolide after such incubation was also independently determined by HPLC analysis.
The ED50 values (column 3) are calculated directly from the data in each experiment, and the % conversion values (column 4) are calculated as percent of the ED50 value produced by triptolide, designated PG490, incubated in the same plasma (i.e. in the same experiment).
A. Incubation of compounds with human serum. Pooled human serum was stored in aliquots at −80° C. Test compounds were added at 20 mM to thawed human serum in 1.5 ml microfuge tubes and incubated at 37° C. in a water bath for varying periods of time. The test samples were placed on ice until dilution for the bioassay. Controls consisted of the compounds incubated in complete tissue culture medium (RPMI 1640 medium plus 5% heat-inactivated fetal calf serum, 1% HEPES, 1% pen/strep, 1% glutamine) rather than human serum.
B. Apoptosis assay of compounds incubated with human serum. Test samples were diluted to 1 mM in complete tissue culture medium. Aliquots were placed in microculture plates and serial dilutions were prepared so that the final concentration would encompass the range of 1 to 10,000 nM with half-log increments. Cells from an exponentially expanding culture of the Jurkat human T lymphocyte cell line (#TIB-152 obtained from American Type Culture Collection, Manassas, Va.) were harvested, washed once by centrifugation and dilution in complete tissue culture medium, and diluted to a concentration of 1×10^6 cells/ml. A volume of 100 μl of Jurkat cells (1×10^5 cells) was added to wells containing 100 μl of the diluted compounds, and the plates were incubated at 37° C. in a 5% CO2 incubator. After 24 hours, the plates were centrifuged to pellet the cells, and the cells were washed twice with 2% heat-inactivated fetal calf serum in PBS. To each well, 500 ul of binding buffer was added according to the Annexin V assay procedure (BioVision, Inc., Mountain View, Calif.). Next, 5 μl of the fluorescein isothiocyanate (FITC) conjugate of Annexin V (BioVision, Inc.) was added to each well, followed by 5 minutes of incubation in the dark. In some assays, propidium iodide (BioVision, Inc.) was added at this stage to check for necrotic cells. The contents of the wells were individually transferred into test tubes, and apoptosis was analyzed using a FACSCalibur flow cytometer (BD Immunocytometry Systems, San Jose, Calif.). Cells positive for Annexin V binding were considered to be apoptotic, and the data were calculated as percent apoptotic cells.
as §1, with “C.” for “B.”, “percent apoptotic cells.” for “IL-2 concentration.”, “inducing” for “inducing a”, “apoptosis (ED50)” for “decrease in the IL-2 concentration (IC50)”

CC(C)[C@]12O[C@H]1[C@@H]1O[C@]13[C@]1(O[C@H]1C[C@H]1C4=C(CC[C@@]13C)C(=O)OC4)[C@@H]2OC(=O)NCCN(C)C [PG688, Triptolide 14-Dimethylaminoethyl Carbamate]
bioactivity in IL-2 inhibition assays (in words) [1]: some level of bioactivity
IL-2 pg/mL at given concentration (nM) ([1]; Table 7, Jurkat cells (48 hrs), 0.001 nM): 883.9 pg/mL
IL-2 pg/mL at given concentration (nM) ([1]; Table 7, Jurkat cells (48 hrs), 0.01 nM): 754.1 pg/mL
IL-2 pg/mL at given concentration (nM) ([1]; Table 7, Jurkat cells (48 hrs), 0.1 nM): 810.4 pg/mL
IL-2 pg/mL at given concentration (nM) ([1]; Table 7, Jurkat cells (48 hrs), 1 nM): 900.4 pg/mL
IL-2 pg/mL at given concentration (nM) ([1]; Table 7, Jurkat cells (48 hrs), 10 nM): 796.3 pg/mL
IL-2 pg/mL at given concentration (nM) ([1]; Table 7, Jurkat cells (48 hrs), 100 nM): 873.3 pg/mL
IL-2 pg/mL at given concentration (nM) ([1]; Table 7, Jurkat cells (48 hrs), 1000 nM): 759.9 pg/mL
IL-2 pg/mL at given concentration (nM) ([1]; Table 7, Jurkat cells (48 hrs), 10000 nM): 459.8 pg/mL
conversion in human serum (in words) [2]: less readily converted
% apoptotic cells at given concentration (nM) ([2]; Table 5, human serum (48 hrs), 1 nM): 9.2%
% apoptotic cells at given concentration (nM) ([2]; Table 5, human serum (48 hrs), 3 nM): 9.8%
% apoptotic cells at given concentration (nM) ([2]; Table 5, human serum (48 hrs), 10 nM): 9.4%
% apoptotic cells at given concentration (nM) ([2]; Table 5, human serum (48 hrs), 30 nM): 9.5%
% apoptotic cells at given concentration (nM) ([2]; Table 5, human serum (48 hrs), 100 nM): 9.4%
% apoptotic cells at given concentration (nM) ([2]; Table 5, human serum (48 hrs), 300 nM): 8.7%
% apoptotic cells at given concentration (nM) ([2]; Table 5, human serum (48 hrs), 1000 nM): 8.6%
% apoptotic cells at given concentration (nM) ([2]; Table 5, human serum (48 hrs), 3000 nM): 8.2%
% apoptotic cells at given concentration (nM) ([2]; Table 5, medium, 1 nM): 13.0%
% apoptotic cells at given concentration (nM) ([2]; Table 5, medium, 3 nM): 14.0%
% apoptotic cells at given concentration (nM) ([2]; Table 5, medium, 10 nM): 12.1%
% apoptotic cells at given concentration (nM) ([2]; Table 5, medium, 30 nM): 10.9%
% apoptotic cells at given concentration (nM) ([2]; Table 5, medium, 100 nM): 11.2%
% apoptotic cells at given concentration (nM) ([2]; Table 5, medium, 300 nM): 11.3%
% apoptotic cells at given concentration (nM) ([2]; Table 5, medium, 1000 nM): 12.1%
% apoptotic cells at given concentration (nM) ([2]; Table 5, medium, 3000 nM): 10.9%

CC(C)[C@]12O[C@H]1[C@@H]1O[C@]13[C@]1(O[C@H]1C[C@H]1C4=C(CC[C@@]13C)C(=O)OC4)[C@@H]2OC(=O)CCC(N)C(=O)O (some centres unmarked) [PG661, 14-isoglutamyl ester, reference compound]
bioactivity in IL-2 inhibition assays (in words) [1]: little or no activity
IL-2 pg/mL at given concentration (nM) ([1]; Table 8, Jurkat cells, 0.0001 nM): 82.0 pg/mL
IL-2 pg/mL at given concentration (nM) ([1]; Table 8, Jurkat cells, 0.001 nM): 102.1 pg/mL
IL-2 pg/mL at given concentration (nM) ([1]; Table 8, Jurkat cells, 0.01 nM): 123.6 pg/mL
IL-2 pg/mL at given concentration (nM) ([1]; Table 8, Jurkat cells, 0.1 nM): 120.7 pg/mL
IL-2 pg/mL at given concentration (nM) ([1]; Table 8, Jurkat cells, 1 nM): 98.2 pg/mL
IL-2 pg/mL at given concentration (nM) ([1]; Table 8, Jurkat cells, 10 nM): 110.3 pg/mL
IL-2 pg/mL at given concentration (nM) ([1]; Table 8, Jurkat cells, 100 nM): 103.6 pg/mL
IL-2 pg/mL at given concentration (nM) ([1]; Table 8, Jurkat cells, 1000 nM): 74.4 pg/mL
IL-2 pg/mL at given concentration (nM) ([1]; Table 8, Jurkat cells, 10000 nM): 68.7 pg/mL
% apoptotic cells at given concentration (nM) ([2]; Table 3, human serum, 0 hr, 10000 nM): 7.9%
% apoptotic cells at given concentration (nM) ([2]; Table 3, human serum, 48 hr, 1 nM): 11.3%
% apoptotic cells at given concentration (nM) ([2]; Table 3, human serum, 48 hr, 3 nM): 10.4%
% apoptotic cells at given concentration (nM) ([2]; Table 3, human serum, 48 hr, 10 nM): 10.3%
% apoptotic cells at given concentration (nM) ([2]; Table 3, human serum, 48 hr, 30 nM): 10.5%
% apoptotic cells at given concentration (nM) ([2]; Table 3, human serum, 48 hr, 100 nM): 10.3%
% apoptotic cells at given concentration (nM) ([2]; Table 3, human serum, 48 hr, 300 nM): 10.5%
% apoptotic cells at given concentration (nM) ([2]; Table 3, human serum, 48 hr, 1000 nM): 10.2%
% apoptotic cells at given concentration (nM) ([2]; Table 3, human serum, 48 hr, 3000 nM): 9.7%
% apoptotic cells at given concentration (nM) ([2]; Table 3, human serum, 48 hr, 10000 nM): 9.4%
% apoptotic cells at given concentration (nM) ([2]; Table 3, medium only, 10000 nM): 13.6%
% apoptotic cells at given concentration (nM) ([2]; Table 4, medium, 10000 nM): 7.3%
% apoptotic cells at given concentration (nM) ([2]; Table 4, serum, 0 hr, 10000 nM): 5.2%
% apoptotic cells at given concentration (nM) ([2]; Table 4, serum, 48 hr, 0.03 nM): 38.8%
% apoptotic cells at given concentration (nM) ([2]; Table 4, serum, 48 hr, 0.1 nM): 38.2%
% apoptotic cells at given concentration (nM) ([2]; Table 4, serum, 48 hr, 0.3 nM): 39.0%
% apoptotic cells at given concentration (nM) ([2]; Table 4, serum, 48 hr, 1 nM): 39.2%
% apoptotic cells at given concentration (nM) ([2]; Table 4, serum, 48 hr, 3 nM): 39.1%
% apoptotic cells at given concentration (nM) ([2]; Table 4, serum, 48 hr, 10 nM): 39.2%
% apoptotic cells at given concentration (nM) ([2]; Table 4, serum, 48 hr, 30 nM): 40.3%
% apoptotic cells at given concentration (nM) ([2]; Table 4, serum, 48 hr, 100 nM): 38.6%
% apoptotic cells at given concentration (nM) ([2]; Table 4, serum, 48 hr, 300 nM): 36.3%
% apoptotic cells at given concentration (nM) ([2]; Table 4, serum, 48 hr, 1000 nM): 28.7%
% apoptotic cells at given concentration (nM) ([2]; Table 4, serum, 48 hr, 3000 nM): 28.2%
% apoptotic cells at given concentration (nM) ([2]; Table 4, serum, 48 hr, 10000 nM): 5.2%
apoptotic activity (in words) ([2]; after 48 hr. incubation in human serum): essentially no activity
